Results reported in paper PMC11839854, “Exploration of (R)-[^11C]YH168 as a PET tracer for imaging monoacylglycerol lipase in the brain: from mice to non-human primates” (European Journal of Nuclear Medicine and Molecular Imaging, 2024).

Key:
Assay type in all cases: biochemical
[1] = target: T1, monoacylglycerol lipase (MAGL) (Macaca fascicularis, UniProt A0A2K5V664); assay: enzymatic inhibition assay with cynomolgus monkey MAGL protein
T1 sequence (A0A2K5V664 1-352): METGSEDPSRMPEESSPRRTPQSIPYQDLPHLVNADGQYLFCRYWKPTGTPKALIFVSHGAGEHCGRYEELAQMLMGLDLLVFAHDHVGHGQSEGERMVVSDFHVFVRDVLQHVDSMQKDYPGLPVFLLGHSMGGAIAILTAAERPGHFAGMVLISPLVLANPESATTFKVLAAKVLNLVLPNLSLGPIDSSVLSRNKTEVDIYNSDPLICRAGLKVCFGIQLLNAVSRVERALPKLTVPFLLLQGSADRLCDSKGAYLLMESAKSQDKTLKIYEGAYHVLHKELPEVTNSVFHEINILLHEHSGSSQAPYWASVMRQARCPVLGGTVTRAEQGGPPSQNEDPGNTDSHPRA

[2] = target: T2, monoacylglycerol lipase (MAGL) (Mus musculus, UniProt O35678); assay: enzymatic inhibition assay with mouse MAGL protein; supported by autoradiography and PET in wild-type vs MAGL knockout mice
T2 construct: gene Mgll
T2 sequence (O35678 1-303): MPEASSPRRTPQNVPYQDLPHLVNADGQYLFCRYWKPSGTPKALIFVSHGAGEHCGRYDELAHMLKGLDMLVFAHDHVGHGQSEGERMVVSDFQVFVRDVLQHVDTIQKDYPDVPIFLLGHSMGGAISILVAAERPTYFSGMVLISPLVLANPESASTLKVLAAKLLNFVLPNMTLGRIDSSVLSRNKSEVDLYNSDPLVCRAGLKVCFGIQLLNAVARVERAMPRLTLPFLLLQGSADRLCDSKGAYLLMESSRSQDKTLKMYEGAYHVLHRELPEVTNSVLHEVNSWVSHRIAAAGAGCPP

[3] = target: T3, monoacylglycerol lipase (MAGL) (Homo sapiens, UniProt Q99685); assay: enzymatic inhibition assay with human MAGL protein
T3 construct: gene MGLL
T3 sequence (Q99685 1-303): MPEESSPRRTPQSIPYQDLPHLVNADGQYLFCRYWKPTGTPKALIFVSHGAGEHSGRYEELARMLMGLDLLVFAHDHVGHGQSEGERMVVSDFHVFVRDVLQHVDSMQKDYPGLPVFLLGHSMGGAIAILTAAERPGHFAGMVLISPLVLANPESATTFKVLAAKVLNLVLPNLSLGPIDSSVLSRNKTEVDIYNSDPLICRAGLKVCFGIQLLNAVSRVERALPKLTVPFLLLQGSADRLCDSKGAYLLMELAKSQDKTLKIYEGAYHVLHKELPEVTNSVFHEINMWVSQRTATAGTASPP

## Cc1cccc(-c2ccc(N3C[C@H](N4CCN(C(=O)c5ccco5)CC4)CC3=O)cc2)c1 [(R)-YH168]
[1]
  IC50: 2.7 nM
[2]
  IC50: 3.8 nM
[3]
  IC50: 4 nM
